Measurements: ChEMBL document CHEMBL3351708, “Synthesis of new pyridazino[4,5-b]indol-4-ones and pyridazin-3(2H)-one analogs as DYRK1A inhibitors” (Bioorg Med Chem Lett, 2014)

molecular target: Cyclin-dependent kinase 5/CDK5 activator 1 (Homo sapiens, UniProt Q00535); experiment: Inhibition of CDK5/p25 (unknown origin); format: protein-complex assay; settings: not given
Sequence (Q00535 whole entry): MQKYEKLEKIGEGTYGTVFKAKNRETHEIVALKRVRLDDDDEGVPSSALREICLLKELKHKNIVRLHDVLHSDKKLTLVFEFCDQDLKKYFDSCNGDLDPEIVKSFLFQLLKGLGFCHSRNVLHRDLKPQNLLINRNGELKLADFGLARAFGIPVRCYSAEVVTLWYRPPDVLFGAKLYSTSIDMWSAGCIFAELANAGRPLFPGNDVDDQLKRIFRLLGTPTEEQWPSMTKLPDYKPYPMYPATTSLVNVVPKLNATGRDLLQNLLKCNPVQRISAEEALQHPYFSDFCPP
Sequence (Q15078 whole entry, further chain): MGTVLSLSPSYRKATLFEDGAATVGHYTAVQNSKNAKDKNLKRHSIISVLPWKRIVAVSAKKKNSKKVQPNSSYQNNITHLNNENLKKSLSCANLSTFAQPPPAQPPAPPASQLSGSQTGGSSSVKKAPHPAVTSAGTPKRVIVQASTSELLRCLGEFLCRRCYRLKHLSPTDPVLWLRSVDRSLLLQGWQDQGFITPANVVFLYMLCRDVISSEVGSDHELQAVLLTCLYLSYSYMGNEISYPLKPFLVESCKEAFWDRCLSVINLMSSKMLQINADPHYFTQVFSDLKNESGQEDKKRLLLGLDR

| Compound | IC50 |
| --- | --- |
| COc1ccc(Nc2cc(-c3ccco3)n[nH]c2=O)cc1 | > 10 µM |
| COc1ccc(Nc2cc(-c3ccccc3)n[nH]c2=O)cc1 | > 10 µM |
| COc1ccc(Nc2cc(C)n[nH]c2=O)cc1 | > 10 µM |
| COc1ccc(Nc2cc(-c3ccc(OC)cc3)n[nH]c2=O)cc1 | > 10 µM |
| COc1ccc2[nH]c3c(=O)[nH]nc(-c4ccc(C(F)(F)F)cc4)c3c2c1 | > 10 µM |

The remaining lines, values ahead:

| IC50 | Compound |
| --- | --- |
| > 10 µM | COc1ccc2[nH]c3c(=O)[nH]nc(-c4ccco4)c3c2c1 |
| > 10 µM | COc1ccc(Nc2cc(-c3ccncc3)n[nH]c2=O)cc1 |
| > 10 µM | COc1ccc2[nH]c3c(=O)[nH]nc(C)c3c2c1 |
| > 10 µM | COc1ccc(-c2n[nH]c(=O)c3[nH]c4ccc(OC)cc4c23)cc1 |

test system: not listed separately; experiment: Antiproliferative activity against human fibroblast cells; format: cell-based; settings: not given

| Compound | IC50 |
| --- | --- |
| COc1ccc2[nH]c3c(=O)[nH]nc(-c4ccco4)c3c2c1 | > 25 µM |
| COc1ccc(Nc2cc(-c3ccco3)n[nH]c2=O)cc1 | > 25 µM |
| COc1ccc(Nc2cc(-c3ccccc3)n[nH]c2=O)cc1 | > 25 µM |
| COc1ccc(Nc2cc(-c3ccncc3)n[nH]c2=O)cc1 | > 25 µM |
| COc1ccc2[nH]c3c(=O)[nH]nc(C)c3c2c1 | 20 µM |
| COc1ccc(-c2n[nH]c(=O)c3[nH]c4ccc(OC)cc4c23)cc1 | > 25 µM |
| COc1ccc2[nH]c3c(=O)[nH]nc(-c4ccc(C(F)(F)F)cc4)c3c2c1 | > 25 µM |

test system: not listed separately; experiment: Antiproliferative activity against human HuH7 cells assessed as decrease in cell growth; format: functional, Huh-7; settings: not given

| Compound | inhibition (INH) |
| --- | --- |
| COc1ccc2[nH]c3c(=O)[nH]nc(-c4ccco4)c3c2c1 | 50% |

test system: not listed separately; experiment: Antiproliferative activity against human HuH7 cells; format: functional, cell-based; settings: Huh-7

| Compound | IC50 |
| --- | --- |
| COc1ccc2[nH]c3c(=O)[nH]nc(-c4ccco4)c3c2c1 | 0.25 µM |
| COc1ccc(Nc2cc(-c3ccco3)n[nH]c2=O)cc1 | > 25 µM |
| COc1ccc(Nc2cc(-c3ccccc3)n[nH]c2=O)cc1 | > 25 µM |
| COc1ccc(Nc2cc(-c3ccncc3)n[nH]c2=O)cc1 | > 25 µM |
| COc1ccc2[nH]c3c(=O)[nH]nc(C)c3c2c1 | 3 µM |
| COc1ccc(-c2n[nH]c(=O)c3[nH]c4ccc(OC)cc4c23)cc1 | > 25 µM |
| COc1ccc2[nH]c3c(=O)[nH]nc(-c4ccc(C(F)(F)F)cc4)c3c2c1 | > 25 µM |

test system: not listed separately; experiment: Antiproliferative activity against human PC3 cells; format: functional, cell-based; settings: PC-3

| Compound | IC50 |
| --- | --- |
| COc1ccc2[nH]c3c(=O)[nH]nc(-c4ccco4)c3c2c1 | > 25 µM |
| COc1ccc(Nc2cc(-c3ccco3)n[nH]c2=O)cc1 | > 25 µM |
| COc1ccc(Nc2cc(-c3ccccc3)n[nH]c2=O)cc1 | > 25 µM |
| COc1ccc(Nc2cc(-c3ccncc3)n[nH]c2=O)cc1 | > 25 µM |
| COc1ccc2[nH]c3c(=O)[nH]nc(C)c3c2c1 | 7 µM |
| COc1ccc(-c2n[nH]c(=O)c3[nH]c4ccc(OC)cc4c23)cc1 | > 25 µM |
| COc1ccc2[nH]c3c(=O)[nH]nc(-c4ccc(C(F)(F)F)cc4)c3c2c1 | > 25 µM |

molecular target: Phosphatidylinositol 4,5-bisphosphate 3-kinase catalytic subunit alpha isoform (Homo sapiens, UniProt P42336); experiment: Inhibition of p110alpha (unknown origin); settings: not given
Sequence (P42336 whole entry, canonical isoform): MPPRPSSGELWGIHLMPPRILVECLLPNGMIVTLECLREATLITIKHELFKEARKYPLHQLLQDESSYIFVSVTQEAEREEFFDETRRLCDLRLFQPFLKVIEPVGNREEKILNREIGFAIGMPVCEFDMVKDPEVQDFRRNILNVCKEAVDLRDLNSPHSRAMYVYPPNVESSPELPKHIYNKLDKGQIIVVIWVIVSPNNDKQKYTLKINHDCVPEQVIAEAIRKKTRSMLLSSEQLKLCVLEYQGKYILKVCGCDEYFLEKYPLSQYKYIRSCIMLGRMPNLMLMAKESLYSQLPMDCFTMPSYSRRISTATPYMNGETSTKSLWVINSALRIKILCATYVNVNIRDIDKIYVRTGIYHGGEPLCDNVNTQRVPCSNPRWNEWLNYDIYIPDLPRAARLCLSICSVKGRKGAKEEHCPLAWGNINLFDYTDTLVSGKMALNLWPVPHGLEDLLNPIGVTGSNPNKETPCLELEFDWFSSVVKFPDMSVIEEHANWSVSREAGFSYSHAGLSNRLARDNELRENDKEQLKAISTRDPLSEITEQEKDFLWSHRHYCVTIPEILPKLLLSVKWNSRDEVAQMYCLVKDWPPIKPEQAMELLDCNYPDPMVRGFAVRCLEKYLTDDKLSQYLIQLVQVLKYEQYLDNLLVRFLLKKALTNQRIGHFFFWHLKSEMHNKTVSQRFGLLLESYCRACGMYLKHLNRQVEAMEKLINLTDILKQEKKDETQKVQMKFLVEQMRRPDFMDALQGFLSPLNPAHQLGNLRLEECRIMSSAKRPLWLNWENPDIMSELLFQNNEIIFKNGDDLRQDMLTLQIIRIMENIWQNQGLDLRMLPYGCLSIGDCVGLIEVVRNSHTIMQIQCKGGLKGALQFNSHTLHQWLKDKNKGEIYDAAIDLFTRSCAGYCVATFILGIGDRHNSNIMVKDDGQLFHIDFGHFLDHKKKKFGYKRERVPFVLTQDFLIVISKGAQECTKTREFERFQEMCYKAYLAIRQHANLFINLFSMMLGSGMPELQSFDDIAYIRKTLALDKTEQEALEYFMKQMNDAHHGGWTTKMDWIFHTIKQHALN

| Compound | IC50 |
| --- | --- |
| COc1ccc(Nc2cc(-c3ccco3)n[nH]c2=O)cc1 | > 10 µM |
| COc1ccc2[nH]c3c(=O)[nH]nc(-c4ccccc4)c3c2c1 | > 10 µM |
| COc1ccc(Nc2cc(-c3ccccc3)n[nH]c2=O)cc1 | > 10 µM |
| COc1ccc2[nH]c3c(=O)[nH]nc(-c4ccc(C(F)(F)F)cc4)c3c2c1 | 6.9 µM |

The remaining lines, values ahead:

| IC50 | Compound |
| --- | --- |
| > 10 µM | COc1ccc2[nH]c3c(=O)[nH]nc(-c4ccco4)c3c2c1 |
| > 10 µM | COc1ccc(Nc2cc(-c3ccncc3)n[nH]c2=O)cc1 |
| > 10 µM | COc1ccc(-c2n[nH]c(=O)c3[nH]c4ccc(OC)cc4c23)cc1 |

test system: not listed separately; experiment: Antiproliferative activity against human HCT116 cells assessed as decrease in cell growth; format: functional, HCT-116; settings: not given

| Compound | inhibition (INH) |
| --- | --- |
| COc1ccc2[nH]c3c(=O)[nH]nc(-c4ccco4)c3c2c1 | 50% |

molecular target: Dual specificity tyrosine-phosphorylation-regulated kinase 1A (Homo sapiens, UniProt Q13627); experiment: Inhibition of DYRK1A (unknown origin); settings: not given

| Compound | IC50 |
| --- | --- |
| COc1ccc(Nc2cc(-c3ccco3)n[nH]c2=O)cc1 | > 10 µM |
| COc1ccc2[nH]c3c(=O)[nH]nc(-c4ccccc4)c3c2c1 | > 10 µM |
| COc1ccc(Nc2cc(-c3ccccc3)n[nH]c2=O)cc1 | > 10 µM |
| COc1ccc(Nc2cc(C)n[nH]c2=O)cc1 | > 10 µM |
| COc1ccc(Nc2cc(-c3ccc(OC)cc3)n[nH]c2=O)cc1 | 5.1 µM |
| COc1ccc2[nH]c3c(=O)[nH]nc(-c4ccc(C(F)(F)F)cc4)c3c2c1 | > 10 µM |

The remaining lines, values ahead:

| IC50 | Compound |
| --- | --- |
| 0.22 µM | COc1ccc2[nH]c3c(=O)[nH]nc(-c4ccco4)c3c2c1 |
| 0.61 µM | COc1ccc(Nc2cc(-c3ccncc3)n[nH]c2=O)cc1 |
| 5 µM | COc1ccc2[nH]c3c(=O)[nH]nc(C)c3c2c1 |
| 1.5 µM | COc1ccc(-c2n[nH]c(=O)c3[nH]c4ccc(OC)cc4c23)cc1 |

test system: MDA-MB-231; experiment: Antiproliferative activity against human MDA-MB-231 cells assessed as decrease in cell growth; format: functional; settings: not given

| Compound | inhibition (INH) |
| --- | --- |
| COc1ccc2[nH]c3c(=O)[nH]nc(-c4ccco4)c3c2c1 | 50% |

test system: NCI-H727; experiment: Antiproliferative activity against human NCI-H727 cells; format: functional, cell-based; settings: not given

| Compound | IC50 |
| --- | --- |
| COc1ccc(Nc2cc(-c3ccco3)n[nH]c2=O)cc1 | > 25 µM |
| COc1ccc(Nc2cc(-c3ccccc3)n[nH]c2=O)cc1 | > 25 µM |
| COc1ccc2[nH]c3c(=O)[nH]nc(-c4ccc(C(F)(F)F)cc4)c3c2c1 | > 25 µM |

The remaining lines, values ahead:

| IC50 | Compound |
| --- | --- |
| > 25 µM | COc1ccc2[nH]c3c(=O)[nH]nc(-c4ccco4)c3c2c1 |
| > 25 µM | COc1ccc(Nc2cc(-c3ccncc3)n[nH]c2=O)cc1 |
| > 25 µM | COc1ccc(-c2n[nH]c(=O)c3[nH]c4ccc(OC)cc4c23)cc1 |

molecular target: Glycogen synthase kinase-3 (Homo sapiens, UniProt P49840+P49841); experiment: Inhibition of GSK3alpha/beta (unknown origin); format: protein assay; settings: not given

| Compound | IC50 |
| --- | --- |
| COc1ccc(Nc2cc(-c3ccco3)n[nH]c2=O)cc1 | > 10 µM |
| COc1ccc2[nH]c3c(=O)[nH]nc(-c4ccccc4)c3c2c1 | 1.3 µM |
| COc1ccc(Nc2cc(-c3ccccc3)n[nH]c2=O)cc1 | > 10 µM |
| COc1ccc(Nc2cc(C)n[nH]c2=O)cc1 | > 10 µM |
| COc1ccc(Nc2cc(-c3ccc(OC)cc3)n[nH]c2=O)cc1 | 2.5 µM |
| COc1ccc2[nH]c3c(=O)[nH]nc(-c4ccc(C(F)(F)F)cc4)c3c2c1 | > 10 µM |

Next, values leading:

| IC50 | Compound |
| --- | --- |
| > 10 µM | COc1ccc2[nH]c3c(=O)[nH]nc(-c4ccco4)c3c2c1 |
| 9.6 µM | COc1ccc(Nc2cc(-c3ccncc3)n[nH]c2=O)cc1 |
| > 10 µM | COc1ccc2[nH]c3c(=O)[nH]nc(C)c3c2c1 |
| 1.4 µM | COc1ccc(-c2n[nH]c(=O)c3[nH]c4ccc(OC)cc4c23)cc1 |

test system: MDA-MB-231; experiment: Antiproliferative activity against human MDA-MB-231 cells; format: functional, cell-based; settings: not given

| Compound | IC50 |
| --- | --- |
| COc1ccc(Nc2cc(-c3ccco3)n[nH]c2=O)cc1 | > 25 µM |
| COc1ccc(Nc2cc(-c3ccccc3)n[nH]c2=O)cc1 | > 25 µM |
| COc1ccc2[nH]c3c(=O)[nH]nc(-c4ccc(C(F)(F)F)cc4)c3c2c1 | > 25 µM |

More lines, now with the values ahead:

| IC50 | Compound |
| --- | --- |
| 0.3 µM | COc1ccc2[nH]c3c(=O)[nH]nc(-c4ccco4)c3c2c1 |
| > 25 µM | COc1ccc(Nc2cc(-c3ccncc3)n[nH]c2=O)cc1 |
| > 25 µM | COc1ccc(-c2n[nH]c(=O)c3[nH]c4ccc(OC)cc4c23)cc1 |

test system: not listed separately; experiment: Antiproliferative activity against human Caco2 cells; format: functional, cell-based; settings: Caco-2

| Compound | IC50 |
| --- | --- |
| COc1ccc2[nH]c3c(=O)[nH]nc(-c4ccco4)c3c2c1 | 0.6 µM |
| COc1ccc(Nc2cc(-c3ccco3)n[nH]c2=O)cc1 | > 25 µM |
| COc1ccc(Nc2cc(-c3ccccc3)n[nH]c2=O)cc1 | > 25 µM |
| COc1ccc(Nc2cc(-c3ccncc3)n[nH]c2=O)cc1 | > 25 µM |
| COc1ccc2[nH]c3c(=O)[nH]nc(C)c3c2c1 | 8 µM |
| COc1ccc(-c2n[nH]c(=O)c3[nH]c4ccc(OC)cc4c23)cc1 | > 25 µM |
| COc1ccc2[nH]c3c(=O)[nH]nc(-c4ccc(C(F)(F)F)cc4)c3c2c1 | > 25 µM |

test system: not listed separately; experiment: Antiproliferative activity against human HCT116 cells; format: functional, cell-based; settings: HCT-116

| Compound | IC50 |
| --- | --- |
| COc1ccc2[nH]c3c(=O)[nH]nc(-c4ccco4)c3c2c1 | 3 µM |
| COc1ccc(Nc2cc(-c3ccco3)n[nH]c2=O)cc1 | > 25 µM |
| COc1ccc(Nc2cc(-c3ccccc3)n[nH]c2=O)cc1 | > 25 µM |
| COc1ccc(Nc2cc(-c3ccncc3)n[nH]c2=O)cc1 | > 25 µM |
| COc1ccc2[nH]c3c(=O)[nH]nc(C)c3c2c1 | 15 µM |
| COc1ccc(-c2n[nH]c(=O)c3[nH]c4ccc(OC)cc4c23)cc1 | > 25 µM |
| COc1ccc2[nH]c3c(=O)[nH]nc(-c4ccc(C(F)(F)F)cc4)c3c2c1 | > 25 µM |
